# Assay results from US20230365563A1, “QUINAZOLINE COMPOUND AND APPLICATION THEREOF” (SHANGHAI PHARMACEUTICALS HOLDING CO., LTD., priority 2020, published 2023).
# Where a name gives a salt, the structure may show the parent alone.
# Molecular target: T1, KRAS-G12D and SOS1 (Homo sapiens, UniProt P01116, G12D)
# T1 construct: purchased
# Test: Inhibition of KRAS-G12D/SOS1 binding (Cisbio binding kit, 665/615 ratio), Effect Embodiment A
# Settings: read-out: GTP-KRAS-G12D:SOS1 IC50
# Method: Similarly, the first dilution point of the compound to be tested was its storage solution, and the solution was 3-fold diluted, with 11+0 points of dilution. Echo was used to transfer 0.2 μL gradient diluted solution of the compounds into a 384-well plate, with 2 duplicated wells for each compound, and the final concentration of DMSO was 1%. The solution was centrifuged for 1 min at 1000 rpm/min.
# IC50 of the compounds was fitted by Graphpad Prism 8 nonlinear regression equation: […]
# The IC50 (half inhibitory concentration) of the compound was obtained by using the following nonlinear fitting formula: […]
# T1 sequence (P01116 1-188 isoform P01116-2 G12D): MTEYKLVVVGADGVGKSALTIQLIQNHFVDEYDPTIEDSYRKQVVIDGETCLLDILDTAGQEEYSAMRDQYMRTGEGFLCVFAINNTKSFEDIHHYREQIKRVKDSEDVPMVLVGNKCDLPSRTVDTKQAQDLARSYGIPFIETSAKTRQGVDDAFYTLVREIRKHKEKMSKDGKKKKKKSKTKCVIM
row,Structure (SMILES),IC50 [µM]
1,"CN(C)CCN(C)c1nc(N2CC(N(C)C)C2)nc2c(F)c(-c3cc(O)cc4ccccc34)c(Cl)cc12 (single isomer, unassigned) [Compound 17a, (R or S)-4-(6-chloro-2-(3-(dimethylamino)azetidin-1-yl)-4-((2-(dimethylamino)ethyl)(methyl)amino)-8-fluoro-quinazolin-7-yl)naphthalen-2-ol]",5.81
2,"Oc1cc(-c2c(Cl)cc3c(N4CC5CCC(C4)N5)nc(OCCCN4CCC4)nc3c2F)c2ccccc2c1 (single isomer, unassigned) [Compound 59b, 4-((R or S)-2-(3-(azetidin-1-yl)propoxy)-4-((1R,5S)-3,8-diazabicyclo[3.2.1]octan-3-yl)-6-chloro-8-fluoroquinazolin-7-yl)naphthalen-2-ol]",5.98
3,"Cc1ccc2[nH]ncc2c1-c1c(Cl)cc2c(N3CC4CCC(C3)N4)nc(OC[C@@H]3CCCN3C)nc2c1F (single isomer, unassigned) [Compound 90a, 4-((1R,5S)-3,8-diazabicyclo[3.2.1]octan-3-yl)-6-chloro-8-fluoro-7-((R or S)-5-methyl-1H-indazol-4-yl)-2-((S)-1-methylpyrrolidin-2-yl)methoxy)quinazoline hydrochloride]",0.263
4,"CN(C)C1CN(c2nc(N3CC4CNCC4C3)c3cc(Cl)c(-c4cc(O)cc5ccccc45)c(F)c3n2)C1 (single isomer, unassigned) [Compound 14d, (S or R)-4-(6-chloro-2-(3-(dimethylamino)azetidin-1-yl)-8-fluoro-4-((3aR,6aR or 3aS,6aS)-hexahydro-pyrrolo[3,4-c]pyrrol-2(1H)-yl)quinazolin-7-yl)naphthalen-2-ol]",56.7
5,"Oc1cc(-c2ncc3c(N4C[C@H]5CC[C@@H](C4)N5)nc(Oc4ccncc4)nc3c2F)c2ccccc2c1 [Compound 130, 4-(4-((1R,5S)-3,8-diazabicyclo[3.2.1]octan-3-yl)-8-fluoro-2-(pyridinyl-4-oxy)pyridyl[4,3-d]pyrimidin-7-yl)naphthalen-2-ol hydrochloride]",0.842
6,"CN1CCC[C@H]1COc1nc(N2CC3CCC(C2)N3)c2cc(Cl)c(-c3cc(O)c(F)c4ccccc34)c(F)c2n1 (single isomer, unassigned) [Compound 89b, (R or S)-4-(4-((1R,5S)-3,8-diazabicyclo[3.2.1]octan-3-yl)-6-chloro-8-fluoro-2-(S)-1-methylpyrrolidin-2-yl)methoxy)quinazolin-7-yl)-1-fluoronaphthalen-2-ol hydrochloride]",5.34
7,"CCCN(C)CCCOc1nc(N2CC3CCC(C2)N3)c2cc(Cl)c(-c3cc(O)cc4ccccc34)c(F)c2n1 (single isomer, unassigned) [Compound 51b, 4-((R or S)-4-((1R,5S)-3,8-diazabicyclo[3.2.1]octan-3-yl)-6-chloro-8-fluoro-2-(3-(methyl(propyl)amino)propoxy)quinazolin-7-yl)naphthalen-2-ol]",50.8
8,"CN(C)C1CN(c2nc(N3CC(C(=N)N)C3)c3cc(Cl)c(-c4cc(O)cc5ccccc45)c(F)c3n2)C1 [Compound 77, (S)-1-(6-chloro-2-(3-(dimethylamino)azetidin-1-yl)-8-fluoro-7-(3-hydroxynaphthalen-1-yl)quinazolin-4-yl)azetidine-3-carboximidamide]",1.03
9,"CN(C)C1CN(c2nc(N3CC4CCC(C3)N4)c3cc(Cl)c(-c4c(O)cccc4F)c(F)c3n2)C1 (single isomer, unassigned) [Compound 43b, 2-((R or S)-4-((1R,5S)-3,8-diazabicyclo[3.2.1]octan-3-yl)-6-chloro-2-(3-(dimethylamino)azetidin-1-yl)-8-fluoroquinazolin-7-yl)-3-fluorophenol]",2.57
10,"CN1CCN(c2nc(N3CC4CCC(C3)N4)c3cc(Cl)c(-c4cc(O)cc5ccccc45)c(F)c3n2)CC1 (single isomer, unassigned) [Compound 52b, 4-((R or S)-4-((1R,5S)-3,8-diazabicyclo[3.2.1]octan-3-yl)-6-chloro-8-fluoro-2-(4-methylpiperazin-1-yl)quinazolin-7-yl)naphthalen-2-ol]",73.9
11,"Oc1cc(-c2c(Cl)cc3c(N4CC5CCC(C4)N5)nc(OCC45CCCN4CCC5)nc3c2F)c2ccccc2c1 (single isomer, unassigned) [Compound 58b, 4-((R or S)-4-((1R,5S)-3,8-diazabicyclo[3.2.1]octan-3-yl)-6-chloro-8-fluoro-2-((tetrahydro-1H-pyrrolin-7a(5H)-yl)methoxy)quinazolin-7-yl)naphthalen-2-ol]",15.1
12,"Oc1cc(-c2c(Cl)cc3c(N4CC5CCC(C4)N5)nc(OCCCN4CCCCC4)nc3c2F)c2ccccc2c1 (single isomer, unassigned) [Compound 66b, 4-((R or S)-4-((1R,5S)-3,8-diazabicyclo[3.2.1]octan-3-yl)-6-chloro-8-fluoro-2-(3-(piperidin-1-yl)propoxy)quinazolin-7-yl)naphthalen-2-ol]",18
13,"CN(C)C1CN(c2nc(N=S3(=O)CCC(N)CC3)c3cc(Cl)c(-c4cc(O)cc5ccccc45)c(F)c3n2)C1 (single isomer, unassigned) [Compound 72b, (4R or S)-4-amino-1-(((S or R)-6-chloro-2-(3-(dimethylamino)azetidin-1-yl)-8-fluoro-7-(3-hydroxynaphthalen-1-yl)quinazolin-4-yl)imino)hexahydro-1-thiopyran 1-oxide]",155
14,"CN(C)C1CN(c2nc(NCC(=N)N)c3cc(Cl)c(-c4cc(O)cc5ccccc45)c(F)c3n2)C1 (single isomer, unassigned) [Compound 76, (S or R)-2-((6-chloro-2-(3-(dimethylamino)azetidin-1-yl)-8-fluoro-7-(3-hydroxynaphthalen-1-yl)quinazolin-4-yl)amino)acetimidamide diformate]",8.96
15,"CN(C)C1CN(c2nc(N3CCNCC3)c3cc(Cl)c(-c4cc(O)cc5ccccc45)c(F)c3n2)C1 (single isomer, unassigned) [Comparative embodiment b, reference compound]",83.4

# Now from value to compound:
row,IC50 [µM],Structure (SMILES)
1,2.01,"CCc1cccc2cc(O)cc(-c3c(F)cc4c(N5CC6CCC(C5)N6)nc(OC[C@H](C)CN5C6CCC5COC6)nc4c3F)c12 (single isomer, unassigned) [Compound 284b, (4R or 4S)-4-(2-((2R)-3-(3-oxa-8-azabicyclo[3.2.1]octan-8-yl)-2-methylpropoxy)-4-((1R,5S)-3,8-diazabicyclo[3.2.1]octan-3-yl)-6,8-difluoroquinazolin-7-yl)-5-ethylnaphthalen-2-o1 dihydrochloride]"
2,1.58,"CCc1c(F)ccc2cc(O)cc(-c3c(F)cc4c(N5CC6CCC(C5)N6)nc(OCCCN5C6CCC5COC6)nc4c3F)c12 (single isomer, unassigned) [Compound 215b, 4-((7R or 7S)-2-(3-(3-oxa-8-azabicyclo[3.2.1]octan-8-yl)propoxy)-4-((1R,5S)-3,8-diazabicyclo[3.2.1]octan-3-yl)-6,8-difluoroquinazolin-7-yl)-5-ethyl-6-fluoronaphthalen-2-ol diformate]"
3,0.387,"CCCN(C)CC1(COc2nc(N3C[C@H]4CC[C@@H](C3)N4)c3cc(Cl)c(-c4cc(O)cc5ccccc45)c(F)c3n2)CC1 (single isomer, unassigned) [Compound 185, (R or S)-4-(4-((1R,5S)-3,8-diazabicyclo[3.2.1]octan-3-yl)-6-chloro-8-fluoro-2-((1-((methyl(propyl)amino)methyl)cyclopropyl)methoxy)quinazolin-7-yl)naphthalen-2-ol diformate]"
4,5.12,"C#Cc1c(F)ccc2cc(O)cc(-c3c(Cl)cc4c(N5CC6CCC(C5)N6)nc(OCCCN5C6CCC5COC6)nc4c3F)c12 (single isomer, unassigned) [Compound 255a, (4S or 4R)-4-(2-(3-(3-oxa-8-azabicyclo[3.2.1]octan-8-yl)propoxy)-4-(1R,5S)-3,8-diazabicyclo[3.2.1]octan-3-yl)-6-chloro-8-fluoroquinazolin-7-yl)-5-ethynyl-6-fluoronaphthalen-2-ol diformate]"
5,0.605,"CN(C)CCCSc1nc(N2C[C@H]3CC[C@@H](C2)N3)c2cc(Cl)c(-c3cc(O)cc4ccccc34)c(F)c2n1 (single isomer, unassigned) [Compound 147, (S or R) 4-(4-((1R,5S)-3,8-diazabicyclo[3.2.1]octan-3-yl)-6-chloro-2-((3-(dimethylamino)propyl)thio)-8-fluoroquinazolin-7-yl)naphthalen-2-ol dihydrochloride]"
6,0.199,"CN1CCC[C@H]1COc1nc(N2CC3NC(C2)C2CC32)c2cnc(-c3cc(O)cc4ccccc34)c(F)c2n1 (stereo partly drawn) [Compound 158, 4-(8-Fluoro-2-((S)-1-methylpyrrolidin-2-yl)methoxy)-4-((1R,2R,4S,5S)-7,9-diazatricyclo[3.3.1.0^2,4]nonan-7-yl)pyridinyl[4,3-d]pyrimidin-7-yl)naphthalen-2-ol diformate]"
7,0.276,"Oc1cc(-c2c(Cl)cc3c(N4CC5CCC(C4)N5)nc(OCC(F)CN4C5CCC4COC5)nc3c2F)c2ccccc2c1 (single isomer, unassigned) [Compound 179a, ((4R or 4S)-4-(2-((2R or 2S)-3-(3-oxa-8-azabicyclo[3.2.1]octan-8-yl)-2-fluoropropoxy)-4-((1R,5S)-3,8-diazabicyclo[3.2.1]octan-3-yl)-6-chloro-8-fluoroquinazolin-7-yl)naphthalen-2-ol diformate]"
8,0.678,"CN(C)C12CC(c3nc(N4CC5CCC(C4)N5)c4cc(Cl)c(-c5cc(O)cc6ccccc56)c(F)c4n3)(C1)C2 (single isomer, unassigned) [Compound 162a, 4-((S or R)-4-((1R,5S)-3,8-diazabicyclo[3.2.1]octan-3-yl)-6-chloro-2-(3-(dimethylamino)bicyclo[1.1.1]pentan-1-yl)-8-fluoroquinazolin-7-yl)naphthalen-2-ol dihydrochloride]"
